The target of the assay is T1, full-length human PKC-α enzyme (Homo sapiens, UniProt P17252).
T1 construct: performed using full-length human PKC-α enzyme (Upstate Biotechnology); purchased Upstate Biotechnology
Description: Assessment of PKC-α Inhibitory Activity (MALDI-TOF kinase assay). It counts as biochemical. Conditions: full-length human PKC-α 0.12 μg/ml; ATP 45 μM; neurogranin 28-43 peptide 22 μM; 30 minute incubation at 24° C.; MALDI-TOF readout. The protocol: Measurement of PKC-α enzyme activity is performed using full-length human PKC-α enzyme (Upstate Biotechnology) at a final concentration of 0.12 μg/ml in a kinase assay buffer (0.09 mg/ml bovine serum albumin (BSA), 210 μM ethylenediaminetetraacetic acid (EDTA), 360 μM CaCl2, 1 mM Tris-HCl, pH=7.5, 0.5 mM MgCl2, 0.015 mg/ml phosphatidylserine and 0.015 mg/ml diacylglycerol). The reaction is initiated by addition of adenosine triphosphate (ATP; final concentration 45 μM) and a peptide substrate consisting of amino acids 28-43 (Ala-Ala-Lys-Ile-Gln-Ala-Ser-Phe-Arg-Gly-His-Met-Ala-Arg-Lys-Lys) of neurogranin (Promega; final concentration 22 μM). After a 30 minute incubation at 24° C. the reaction is terminated by adding 5 μL of the reaction mixture into 50 μL of MALDI matrix solution (5 mg/ml α-cyano-4-hydroxycinnamic acid in 50% Acetonitrile/H2O, 0.1% TFA, 5 mM ammonium phosphate). Two microliters of the stopped reaction mixture is transferred onto a MALDI-TOF mass spectrometer target plate.
All spectra are collected on an Applied Biosystems 4700 Proteomics Analyzer MALDI-TOF MS equipped with a Nd:YAG laser (355 nm, 3 ns pulse width, 200 Hz repetition rate) in negative ion reflector mode. The system is operated with 4700 Explorer software, version 3.0. Automated acquisition parameters are adjusted to capture and average only those individual spectra within defined success criteria. Specifically, signal intensities for the substrate peptide are set to a minimum threshold of 3000 counts and a maximum intensity of 65,000 counts. This ensured that neither null spectra nor saturated spectra are averaged into the final readout. Between 1000 and 1500 laser shots are averaged for each sample. Data are collected in triplicate from 3 successive days to capture the maximum variability related to preparation of enzyme reaction, transfer of samples to MALDI target plates, data collection, and data extraction.
The isotope cluster areas for each peptide substrate and product peaks are extracted into a Microsoft Excel worksheet from the 10×10 array of spectral data simultaneously using the automated analysis function provided within the 4700 Explore software. The isotope cluster area is defined by the software algorithm based on the molecular weight and the general elemental composition of the peptides. The percent conversion (% C) of substrate to product is calculated as the cluster area of the product (P) divided by the sum of the cluster areas of the substrate (S) and the product multiplied by 100 as represented by the following equation: […]
For dose-dependent inhibition studies, the inhibition is plotted as a % Maximal Activity (% MA). Equation one is a measure of the ratio of product to substrate then solving for the % C. However, to measure inhibition of the enzyme activity, one must measure the degree to which that activity (% C) is curtailed. Thus the dose-dependant inhibition data is plotted as % MA where the maximal activity is the % C measured in control reactions with no inhibitor as represented by the following equation: […]
For orientation: IC50 means the concentration needed to halve the response being measured. Higher therefore signals a need for much substance. Turning to `CN(C)CCCNc1ccnc(Nc2cccc(Cl)c2)n1` [No. 3, N^2-(3-chlorophenyl)-N^4-[3-(dimethylamino)propyl]pyrimidine-2,4-diamine], the midpoint of inhibition, the IC50, lay at 312 nM.
The value for `CN(C)CC(C)(C)CNc1ccnc(Nc2cccc(C(F)(F)F)c2)n1` [No. 75, N^4-[3-(dimethylamino)-2,2-dimethylpropyl]-N^2-[3-(trifluoromethyl)phenyl]pyrimidine-2,4-diamine] was 4 nM.
The value for `CN(C)CCCCNc1ccnc(Nc2cccc(Cl)c2)n1` [No. 81, N^2-(3-chlorophenyl)-N^4-[4-(dimethylamino)butyl]pyrimidine-2,4-diamine] was 0.8 nM; that for `CCN(CC)CCCNc1ccnc(Nc2cccc(Cl)c2)n1` [compound 6] was 1 nM; that for `CN(C)CCCNc1ccnc(Nc2ccc(Cl)c(Cl)c2)n1` [compound 15] was 15 nM.
On to `Cc1ccc(Nc2nccc(NCCCN(C)C)n2)cc1Cl` [compound 21], for which the IC50 came to 3 nM.
The value for `CN(C)CCCNc1ccnc(Nc2cccc(Cl)c2F)n1` [compound 25] was 23 nM; that for `CN(C)CCCNc1ccnc(Nc2ccc(F)c(Cl)c2)n1` [compound 27] was 8 nM.
The value for `CN(C)CCCNc1ccnc(Nc2ccc(F)c(F)c2)n1` [compound 33] was 65 nM; that for `CN(C)CCCNc1ccnc(Nc2cccc(C(F)(F)F)c2)n1` [compound 39] was 0.5 nM; that for `CN(C)CCCNc1ccnc(Nc2ccc(Cl)c(C(F)(F)F)c2)n1` [compound 45] was 3 nM.
The value for `COc1cccc(Nc2nccc(NCCCN(C)C)n2)c1` [compound 51] was 14 nM; that for `Cc1cccc(Nc2nccc(NCCCN(C)C)n2)c1` [compound 55] was 40 nM; that for `Cc1cccc(Nc2nccc(NCCCN(C)C)n2)c1` [compound 58] was 93 nM.
In turn, `CN(C)CCNc1ccnc(Nc2cccc(Cl)c2)n1` [compound 69] came in with an IC50 of 83 nM. The IC50 values of the last two compounds are within 1.5-fold of each other.
The value for `CN(C)CCCCNc1ccnc(Nc2cccc(Cl)c2)n1` [compound 81] was 12 nM; that for `CN(C)CCCNc1ccnc(Nc2cccc(-c3ccccc3)c2)n1` [compound 87] was 0.4 nM; that for `Cc1nc(-c2cccc(Nc3nccc(NCCCN(C)C)n3)c2)cs1` [compound 105] was 48 nM.

For the origin of these results see US8158641B2, “2-anilino-4-aminoalkyleneaminopyrimidines” (Boehringer Ingelheim International GmbH, priority 2006, dated 2012).
